Laboratory results as given in patent publication US5849863A, “Cytolytic bradykinin antagonists” (University of Colorado, priority 1995, dated 1998).
No end group written: not given here.

Tests used:
[1] = system: Calcium flux in response to BK; test: Calcium flux assay, response to BK; format: cell-based; settings: read-out: IC50 Ca2+ (BK)
Method: (§1) Briefly, mechanically dispersed single cell suspensions of plateau phase cells (7 days after splitting) were suspended in 20 mM HEPES/BSS buffer (20 mM Hepes/140 mM NaCl/5mM KCI/1 mM MgCl2 /5 mM Glucose) adjusted to pH 6,8 at 37° C. The acetoxymethyl ester form of Indo-1 (Indo-AM) at 5 μM was incubated with the cells for 30 min at 37° C. and then diluted with 1:1 with 20 mM HEPES/BSS buffer, pH 7.4 to raise the final pH to 7.1 followed by a second 30-min incubation at 37° C.
(§2) UV excitation (80 mW at 360 nm) was delivered by a model INNOVA 90/5 argon ion laser (Coherent, Palo Alto, Calif.). […] Thus, the ratio of the 410 nm fluorescence/490 nm fluorescence constitutes a measure of the changes in calcium ions liberated form intracellular stores (Endoplasmic reticulum) in response to various stimuli. Viable, loaded cells were distinguished by the machine form debris, dead cells, and unloaded cells by forward angle and 90° light scatter and 490 nm fluorescence. […] Data were collected by the MDADS computer including 410 nm and 490 nm fluorescence intensities and the ratio of 410/490 fluorescence intensity was secured as a function of time. […] The data were analyzed by a program developed by Philip Jewett.

[2] = system: Calcium flux in response to CCK; test: Calcium flux assay, response to CCK or gastrin; format: cell-based
Method: as §1, §2

SCLC cell line SHP-77 = test: Colorimetric MTT assay, growth of SCLC cell line SHP-77; format: cell-based, human
Method: (§3) The effectiveness of the antagonist compounds in inhibiting cancer cell growth in vitro was determined using a panel of human lung cancer cell lines: SCLC--SHP77, H345 and NSCLC--A549, H450; breast carcinoma McF7, normal human epithelial BEAS and normal human skin fibroblast FS 15 were used to study the specificity and cytotoxicity of the BK antagonist dimers. Cell lines were treated with various concentrations of dimers for 5 to 7 days and cell viability were measured with routine MTT assay. Cells treated with BK dimers were also be evaluated for apoptosis using our newly developed cytometric technique.
Cellular growth and survival was measured by a rapid colorimetric assay, based on the tetrazolium salt MTT, (3-(4,5-dimethylthiazol-2-yl)-2,5-diphenyl tetrazolium bromide), developed by Mosmann (J. of Immun. Methods, 65, 55-63, 1983) with minor modifications. Briefly, 1,000 normal lung fibroblasts or normal epithelial BEAS-2B cells, 1,000 or 5,000 viable NSCLC cell and 10,000 viable SCLC cell were plated in a 100 μl volume of growth medium in 96 well flat-bottomed microtiter plates. The cells were allowed to recover overnight. Bradykinin antagonists at various concentrations were added to the cells in triplicates and the plates were incubated at 37° C., 5% CO2 with 100% humidity. […] Absorbance at 490 nm was immediately determined using a scannning multiwell plate reader. […]

SCLC cell lines [3] = test: Growth of SCLC cell lines (MTT assay); format: cell-based, human; settings: result in words
Method: as §3
Cellular growth and survival was measured by a rapid colorimetric assay, based on the tetrazolium salt MTT, (3-(4,5-dimethylthiazol-2-yl)-2,5-diphenyl tetrazolium bromide), developed by Mosmann (J. of Immun. Methods, 65, 55-63, 1983) with minor modifications. Briefly, 1,000 normal lung fibroblasts or normal epithelial BEAS-2B cells, 1,000 or 5,000 viable NSCLC cell and 10,000 viable SCLC cell were plated in a 100 μl volume of growth medium in 96 well flat-bottomed microtiter plates. The cells were allowed to recover overnight. Bradykinin antagonists at various concentrations were added to the cells in triplicates and the plates were incubated at 37° C., 5% CO2 with 100% humidity. […] Absorbance at 490 nm was immediately determined using a scannning multiwell plate reader.

SCLC cell lines [4] = test: Apoptosis in SCLC / lung cancer cells; format: cell-based, human; settings: inhibitory concentrations; data not shown
Stability in plasma = format: in vitro ADME
rat uterus = settings: agonist reference value; cited from earlier work
guinea pig ileum = settings: agonist reference value; cited from earlier work
[5] = system: intracellular Ca++ release, human lung cancer cell lines; settings: Bunn et al. 1992; cited from earlier work

| IC50 [1] [nM] | stable in plasma (Stability in plasma) | half-life (Stability in plasma; stability in plasma, read-out: Plasma t1/2) [h] | Molecule | % Inhibition CCK Ca2+ [2] [%] | effect on SCLC growth (SCLC cell line SHP-77; concentration up to 40 μM, SHP-77) | IC50 (SCLC cell line SHP-77; growth of SCLC cell line SHP-77) [nM] | growth inhibition, SCLC cell lines (SCLC cell lines [3]) | apoptotic response in SCLC cell lines (SCLC cell lines [4]) | pD2 (negative logarithm of the dose of bradykinin that causes half-maximal contraction) (rat uterus) | pD2 (negative logarithm of the dose of bradykinin that causes half-maximal contraction) (guinea pig ileum) | stimulation of intracellular Ca++ release [5] |
| --- | --- | --- | --- | --- | --- | --- | --- | --- | --- | --- | --- |
| 10 | stable in plasma | > 24 | NC(N)=NCCC[C@@H](N)C(=O)N[C@@H](CCCN=C(N)N)C(=O)N1CCC[C@H]1C(=O)N1C[C@H](O)C[C@H]1C(=O)NCC(=O)N[C@@H](Cc1cccs1)C(=O)N[C@@H](CO)C(=O)N1Cc2ccccc2C[C@@H]1C(=O)N1[C@H](C(=O)N[C@@H](CCCN=C(N)N)C(=O)O)C[C@@H]2CCCC[C@@H]21 [Compound B116] | 0 | little effect | > 40000 | no growth inhibition | no growth inhibition or apoptotic response | – | – | – |
| – | – | – | RPPGFSPFR [bradykinin, Arg^1 -Pro^2 -Pro^3 -Gly^4 -Phe^5 -Ser^6 -Pro^7 Phe^8 -Arg^9] | – | – | – | – | – | 7.9 | 7.4 | most potent peptide stimulant of intracellular Ca^++ release |
